From patent US9333257B2, “FGFR1 antibodies and treatment of cancer” (Agency for Science, Technology and Research, priority 2011, dated 2016) come the findings set out here.

What all share (type): cell-based, human
The test system of assay [1] is MG63 cells. The assay is described as follows: Cell growth, viable cell count by GUAVA Viacount. The note with it: 48 hours; for repression of cell growth: 50 μM.
Description: The cells were seeded in triplicates at 20,000 cells/cm^2 in 24-well plates, except MDA-MB468 which was plated at 100,000 cells/cm^2. […] 48 hours after treatment, the viable cell numbers were counted using the GUAVA Viacount Program and used to plot the graph (FIG. 6). The ‘starting’ cell numbers which were seeded for the assay were also included. hFOB is the normal cell control for osteosarcoma cells, while MCF10A is the normal cell control for breast cancer cells.
We tested the effectiveness of these reagents to block the growth of MG63 using GUAVA Viacount system.
The effect of these antibodies on the growth of MG63 cells were examined by GUAVA EasyCyte flow cytometry system.
Rabbit IgG and mouse IgG were the vehicle control for IMB-R1 and IMB-R1 mAbs, respectively. The viable cells were counted by GUAVA Viacount system. The statistics was done by Student's t test.
In the next assay the test system is Saos-2. The assay can be described thus: Cell viability via GUAVA, fold change vs cells plated. The note with it: two day treatment. The procedure: (§1) Old media was first removed and 3 ml of fresh media added. IMBR1 and rabbit IgG were added to achieve desired dosage. PD166866 (Sigma-Aldrich, USA) and SU5402 (Merck, Germany) were dissolved in dimethyl sulfoxide (DMSO; Sigma-Aldrich, USA) and added to master mix of media to achieve desired concentration. Additional DMSO was added such that total volume of chemicals added was constant.
(§2) Cells were grown in 24-well plate with 500 μl of media at a seeding density of 20,000 cells/cm^2, except for MDA-MB-468 which were seeded at a density of 100,000 cells/cm^2. Each well of cells were then collected via trypsinization with 200 μl of trypsin-EDTA (Invitrogen, USA) and neutralized with 200 μl of media. 1 μl of GUAVA Viacount Flex dye (Guava Technologies, USA) was added to each well. Quantification of viable cells were performed as per manufacturer's instructions.
(§3) To determine the effect of inhibiting FGFR1 signaling on cell viability in osteosarcoma cells, Saos-2 and hOS were treated with varying concentrations of FGFR tyrosine kinase inhibitors PD166866 (Panek et al., 1998) and SU5402 (Mohammadi et al, 1997). The control groups of respective cell lines were treated with equivalent volume of DMSO, as DMSO is the vehicle for both chemical inhibitors. Cell viability was measured via GUAVA and fold change calculated to compare changes in number of cells after two day treatment and number of cells plated. A fold change greater than one indicated an increase in number of cells while a fold change less than one indicated a decrease in number of cells compared to number of cells plated.
To determine the effect of IMBR1 on cell viability, GUAVA was performed after two day treatment with varying amount of IMBR1 or rabbit IgG as control. Rabbit IgG was used as control as IMBR1 is raised in rabbit. Half maximal inhibitory constant (IC50) was then determined.

Another assay relates to hOS. The assay is described as above. The note with it: two day treatment. The procedure:
as §1, §2, §3

In assay [2] the test system is MG63 cells. The assay can be described thus: Annexin V-FITC / PI staining apoptosis assay. The protocol: Thus we treated MG63 with 1:250 dilution of IMB-R1 or equal volume of rabbit IgG for 24 hours and then stained the cells with Annexin V-FITC and Propidium Iodide (PI) (BD Biosciences). Annexin V binds to phosphatidylserine which is only present on the outer layer of cell membrane at the early stage of apoptosis. Therefore positive staining of Annexin V indicates early apoptosis. PI is unable to penetrate the intact cell membrane. Only when the membrane breaks down at the late stage of apoptosis, PI can enter and stain the cell. After staining, the cell population was analyzed by BD FACS Array system. The viable cells were negative of either Annexin V-FITC or PI staining, which was shown in Q3; the early apoptotic cells were positive of Annexin V-FITC but negative of PI staining, which was shown in Q4; the late apoptotic or dead cells were positive of both staining, which was shown in Q2. The percentage of positive cells in each population was plotted in the graphs.
We next examined whether FGF2 regulated cell apoptosis and IMB-R1 blocked its effect. MG63 cells were treated with IMB-R1 (1:250) 1 hour before FGF2 (20 ng/ml). 24 hours later, cells were harvested and stained with Annexin-PI. Thereafter, cells were analysed by flow cytometry (FIG. 11B). […]
Cells were treated with 25 μM U0126 for 24 hours before the apoptosis of the cells was analysed by Annexin-PI staining.

For assay [3], the system named is MG63 cells. The assay can be described thus: FGF2 stimulated MG63 cell growth (GUAVA). The procedure:
MG63 cells were treated with 20 ng/ml FGF2, IMB-R1 (1:250 dilution), or pretreated with IMB-R11 hour before addition of FGF2. Cells without the above treatments were the control. After 2 days, the viable cell numbers were counted using GUAVA system as mentioned before.
Cells were first treated with increasing doses of U0126 for 48 hours. The viable cell numbers were then analysed by GUAVA system. Next, cells were treated with 20 ng/ml FGF2 in the presence or absence of the optimal dose of U0126 determined from the first assay, before the cell counting was performed.

A further assay concerns Caspase 3. The assay is described as follows: Caspase 3 activity assay (Biovision kit) in MG63. The note with it: 24 hours. The protocol: We further examined the effect of IMB-R1 on Caspase 3 activity using an assay kit from Biovision. Caspase 3 is activated at the early stage of apoptosis, so it is used as a common marker of apoptosis. Staurosporine, known as the inducer of caspase 3 activity, was used in this assay as the positive control. We first treated MG63 cells with increasing dose of staurosporine for 24 hours to determine the working dose.
We next examined whether FGF2 regulated cell apoptosis and IMB-R1 blocked its effect. MG63 cells were treated with IMB-R1 (1:250) 1 hour before FGF2 (20 ng/ml). 24 hours later, cells were harvested and stained with Annexin-PI. Thereafter, cells were analysed by flow cytometry (FIG. 11B). The percentage of positive cells in each population was plotted in the graphs (FIG. 11C). We further examined the effect of IMB-R1 and FGF2 on Caspase 3 activity using the assay kit from Biovision. Caspase 3 is activated at the early stage of apoptosis, so it is used as a common marker of apoptosis. The dose of reagents and the time point chosen were same to those in Annexin-PI staining assay.

As for `COc1cc(OC)cc(-c2cc3cnc(N)nc3nc2NC(=O)NC(C)(C)C)c1` [PD166866], the “repression of cell growth” value in the assay with MG63 cells [1] is around 50%. Also, the “fold change of cell number vs cells plated” value with Saos-2 (10 μM) came out at 1.7; in the assay with Saos-2 (100 μM), 0.4; with hOS (10 μM), 4.2; in the assay on hOS (100 μM), 0.7.

For `CCN(CC)CCCCNc1ncc2cc(-c3cc(OC)cc(OC)c3)c(NC(=O)NC(C)(C)C)nc2n1` [PD173074], in the assay on MG63 cells [1] (Homo sapiens, MG-63, read-out: concentration able to induce 50% cell growth inhibition), the IC50 is 10 to 25 µM.

Regarding `Cc1c[nH]c(/C=C2\C(=O)Nc3ccccc32)c1CCC(=O)O` [SU5402], the “repression of cell growth” value with MG63 cells [1] was around 50%. Also, the “fold change of cell number vs cells plated” value amounted to 2.14 in the assay on Saos-2 (10 μM), 0.9 with Saos-2 (100 μM), 5.2 in the assay with hOS (10 μM) and 0.6 with hOS (100 μM).

As to `N#CC(=C(/N)Sc1ccccc1N)/C(C#N)=C(\N)Sc1ccccc1N` [U0126], the “cell number relative to cells without treatment” value in the assay on MG63 cells [1] (25 μM) is reported as around 50%. The compound also registered a cell apoptosis in the assay on MG63 cells [2] (25 μM, 24 hours (control 7.49%)) of around 100%. For the same compound, the viability at 25 µM in the assay on MG63 cells [2] (Homo sapiens, MG-63, 24 h, read-out: viable cells) was below 1%. Also, in the assay with MG63 cells [3] (25 μM U0126, 20 ng/ml FGF2), the “FGF2 stimulated cell growth” value is “completely suppressed”.

With `CN[C@@H]1C[C@H]2O[C@@](C)([C@@H]1OC)n1c3ccccc3c3c4c(c5c6ccccc6n2c5c31)C(=O)NC4` [staurosporine], the “Caspase 3 activation” value with Caspase 3 (15 nM) is “sufficient to activate Caspase 3”.

Take “FGF2: recombinant human FGF2 (R&D Systems), FGF ligand that activates FGFR1 signalling”: in the assay on Caspase 3 (FGF2 20 ng/ml alone), the “caspase 3 activity” value is “slightly decreased”. The “increase of cell proliferation” value in the assay on MG63 cells [3] (20 ng/ml FGF2, 2 days) is 1.9 folds.
